The target in test [1] is Glucagon-like peptide 1 receptor (Homo sapiens, UniProt P43220). Put plainly: Agonist activity at GLP1R expressed in HEK293 cells assessed as stimulation of cAMP production by luciferase reporter gene assay. Type of test: functional, cell-based. In general terms: Changes in cAMP serve as a functional read-out for many G protein-coupled receptors.
The next test deals with Glucagon receptor (Homo sapiens, UniProt P47871). Description: Agonist activity at GCGR expressed in HEK293 cells assessed as stimulation of cAMP production by luciferase reporter gene assay. Type of test: functional, cell-based.

The text below walks through data of ChEMBL document CHEMBL1221226 (Nat Chem Biol, 2009).

Positions of bridges follow the written chain, without caps; N, C: chain ends. Residues, ends and D or L forms follow the SMILES beside them. *: point of attachment. X1 = CC(CN[C@@H](Cc1cnc[nH]1)C(=O)O)C(=O)*

Sequence of Glucagon-like peptide 1 receptor (P43220 whole entry): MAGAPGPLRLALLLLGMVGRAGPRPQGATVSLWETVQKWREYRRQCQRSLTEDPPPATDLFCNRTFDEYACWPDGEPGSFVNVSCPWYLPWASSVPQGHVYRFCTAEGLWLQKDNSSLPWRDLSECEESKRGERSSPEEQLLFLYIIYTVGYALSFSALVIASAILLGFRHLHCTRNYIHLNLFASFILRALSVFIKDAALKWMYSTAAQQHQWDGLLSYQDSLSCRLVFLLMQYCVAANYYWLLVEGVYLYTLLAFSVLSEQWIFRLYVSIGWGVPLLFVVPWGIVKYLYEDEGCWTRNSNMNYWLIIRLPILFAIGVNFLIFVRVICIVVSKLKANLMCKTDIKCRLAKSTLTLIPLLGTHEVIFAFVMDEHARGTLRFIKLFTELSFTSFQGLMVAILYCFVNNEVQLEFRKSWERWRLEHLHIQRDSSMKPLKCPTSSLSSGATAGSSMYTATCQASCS
Sequence of Glucagon receptor (P47871 whole entry): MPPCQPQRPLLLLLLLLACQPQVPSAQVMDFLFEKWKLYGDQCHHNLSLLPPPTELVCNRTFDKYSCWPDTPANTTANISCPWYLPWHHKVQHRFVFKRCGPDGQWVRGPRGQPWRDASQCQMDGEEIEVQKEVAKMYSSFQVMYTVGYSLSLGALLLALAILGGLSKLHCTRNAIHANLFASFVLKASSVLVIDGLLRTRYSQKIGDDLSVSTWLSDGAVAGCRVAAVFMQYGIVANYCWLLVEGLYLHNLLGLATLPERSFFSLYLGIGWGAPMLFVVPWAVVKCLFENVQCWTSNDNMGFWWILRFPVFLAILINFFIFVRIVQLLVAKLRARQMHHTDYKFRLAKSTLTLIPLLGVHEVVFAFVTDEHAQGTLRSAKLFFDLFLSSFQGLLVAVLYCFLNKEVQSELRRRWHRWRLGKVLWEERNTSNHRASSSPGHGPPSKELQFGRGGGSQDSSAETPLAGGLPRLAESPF

As to `CSCC[C@H](NC(=O)[C@H](CC(C)C)NC(=O)[C@H](Cc1c[nH]c2ccccc12)NC(=O)[C@H](C)NC(=O)[C@@H](NC(=O)[C@H](Cc1ccccc1)NC(=O)[C@H](CC(=O)O)NC(=O)[C@H](CCCCN)NC(=O)[C@H](C)NC(=O)[C@H](CCCN=C(N)N)NC(=O)[C@H](CCCN=C(N)N)NC(=O)[C@H](CCC(=O)O)NC(=O)[C@H](CC(=O)O)NC(=O)[C@H](CC(C)C)NC(=O)[C@H](Cc1ccc(O)cc1)NC(=O)[C@H](CCCCN)NC(=O)[C@H](CO)NC(=O)[C@H](Cc1ccc(O)cc1)NC(=O)[C@H](CC(=O)O)NC(=O)[C@H](CO)NC(=O)[C@@H](NC(=O)[C@H](Cc1ccccc1)NC(=O)[C@@H](NC(=O)CNC(=O)[C@H](CCC(N)=O)NC(=O)[C@H](CO)N[C@@H](Cc1cnc[nH]1)C(=O)O)[C@@H](C)O)[C@@H](C)O)C(C)C)C(=O)N[C@@H](CC(N)=O)C(=O)N[C@H](C(N)=O)[C@@H](C)O`, the half-maximal effective concentration (EC50) in test [1] amounted to 0.087 nM; on Glucagon receptor, 0.08 nM.

Consider `CSCC[C@H](NC(=O)[C@H](CC(C)C)NC(=O)[C@H](Cc1c[nH]c2ccccc12)NC(=O)[C@@H]1CCC(=O)NCCCC[C@H](NC(=O)[C@H](C)NC(=O)[C@H](CCCN=C(N)N)NC(=O)[C@H](CCCN=C(N)N)NC(=O)[C@H](CO)NC(=O)[C@H](CC(=O)O)NC(=O)[C@H](CC(C)C)NC(=O)[C@H](Cc2ccc(O)cc2)NC(=O)[C@H](CCCCN)NC(=O)[C@H](CO)NC(=O)[C@H](Cc2ccc(O)cc2)NC(=O)[C@H](CC(=O)O)NC(=O)[C@H](CO)NC(=O)[C@@H](NC(=O)[C@H](Cc2ccccc2)NC(=O)[C@@H](NC(=O)CNC(=O)[C@H](CCC(N)=O)NC(=O)[C@H](CO)N[C@@H](Cc2cnc[nH]2)C(=O)O)[C@@H](C)O)[C@@H](C)O)C(=O)N[C@@H](CC(=O)O)C(=O)N[C@@H](Cc2ccccc2)C(=O)N[C@@H](C(C)C)C(=O)N1)C(=O)N[C@@H](CC(N)=O)C(=O)N[C@H](C(=O)O)[C@@H](C)O`, for which the results for the EC50 (in test [1]; on Glucagon receptor) were 0.24 nM and 0.078 nM, respectively.

With `CSCC[C@H](NC(=O)[C@H](CC(C)C)NC(=O)[C@H](Cc1c[nH]c2ccccc12)NC(=O)[C@H](CCC(N)=O)NC(=O)[C@@H](NC(=O)[C@H](Cc1ccccc1)NC(=O)[C@H](CC(=O)O)NC(=O)[C@H](CCC(N)=O)NC(=O)[C@H](C)NC(=O)[C@H](CCCN=C(N)N)NC(=O)[C@H](CCCN=C(N)N)NC(=O)[C@H](CCC(=O)O)NC(=O)[C@H](CC(=O)O)NC(=O)[C@H](CC(C)C)NC(=O)[C@H](Cc1ccc(O)cc1)NC(=O)[C@H](CCCCN)NC(=O)[C@H](CO)NC(=O)[C@H](Cc1ccc(O)cc1)NC(=O)[C@H](CC(=O)O)NC(=O)[C@H](CO)NC(=O)[C@@H](NC(=O)[C@H](Cc1ccccc1)NC(=O)[C@@H](NC(=O)CNC(=O)[C@H](CCC(N)=O)NC(=O)[C@H](CO)N[C@@H](Cc1cnc[nH]1)C(=O)O)[C@@H](C)O)[C@@H](C)O)C(C)C)C(=O)N[C@@H](CC(N)=O)C(=O)N[C@H](C(N)=O)[C@@H](C)O`, the EC50 in test [1] is 0.17 nM; at Glucagon receptor, 0.049 nM.

For the molecule `CC[C@H](C)[C@H](NC(=O)[C@H](Cc1ccccc1)NC(=O)[C@H](CCC(=O)O)NC(=O)[C@H](CCCCN)NC(=O)[C@H](C)NC(=O)[C@H](C)NC(=O)[C@H](CCC(N)=O)NC(=O)[C@H](CCC(=O)O)NC(=O)[C@H](CC(=O)O)NC(=O)[C@H](CC(C)C)NC(=O)[C@H](Cc1ccc(O)cc1)NC(=O)[C@H](CCCCN)NC(=O)[C@H](CO)NC(=O)[C@H](Cc1ccc(O)cc1)NC(=O)[C@H](CC(=O)O)NC(=O)[C@H](CO)NC(=O)[C@@H](NC(=O)[C@H](Cc1ccccc1)NC(=O)[C@@H](NC(=O)CNC(=O)[C@H](CCC(N)=O)NC(=O)[C@H](CO)NC(=O)[C@@H](N)Cc1cnc[nH]1)[C@@H](C)O)[C@@H](C)O)C(=O)N[C@@H](C)C(=O)N[C@@H](Cc1c[nH]c2ccccc12)C(=O)N[C@@H](CC(C)C)C(=O)N[C@@H](CCSC)C(=O)N[C@@H](CC(N)=O)C(=O)N[C@H](C(=O)O)[C@@H](C)O` (H-HSQGTFTSDYSKYLDEQAAKEFIAWLMNT-OH), the EC50 came to 0.026 nM in test [1] (hek293) and 0.068 nM at Glucagon receptor (hek293).

Consider `CSCC[C@H](NC(=O)[C@H](CC(C)C)NC(=O)[C@H](Cc1c[nH]c2ccccc12)NC(=O)[C@H](CCC(N)=O)NC(=O)[C@@H](NC(=O)[C@H](Cc1ccccc1)NC(=O)[C@H](CC(=O)O)NC(=O)[C@H](CCCCN)NC(=O)[C@H](C)NC(=O)[C@H](CCCN=C(N)N)NC(=O)[C@H](CCC(N)=O)NC(=O)[C@H](CCC(=O)O)NC(=O)[C@H](CC(=O)O)NC(=O)[C@H](CC(C)C)NC(=O)[C@H](Cc1ccc(O)cc1)NC(=O)[C@H](CCCCN)NC(=O)[C@H](CO)NC(=O)[C@H](Cc1ccc(O)cc1)NC(=O)[C@H](CC(=O)O)NC(=O)[C@H](CO)NC(=O)[C@@H](NC(=O)[C@H](Cc1ccccc1)NC(=O)[C@@H](NC(=O)CNC(=O)[C@H](CCC(N)=O)NC(=O)[C@H](CO)N[C@@H](Cc1cnc[nH]1)C(=O)O)[C@@H](C)O)[C@@H](C)O)C(C)C)C(=O)N[C@@H](CC(N)=O)C(=O)N[C@H](C(N)=O)[C@@H](C)O`, for which the concentration for a half-maximal effect (EC50) in test [1] was 0.075 nM; at Glucagon receptor, 0.048 nM.

`CSCC[C@H](NC(=O)[C@H](CC(C)C)NC(=O)[C@H](Cc1c[nH]c2ccccc12)NC(=O)[C@H](CCC(N)=O)NC(=O)[C@@H](NC(=O)[C@H](Cc1ccccc1)NC(=O)[C@H](CC(=O)O)NC(=O)[C@H](CCCCN)NC(=O)[C@H](C)NC(=O)[C@H](CCCN=C(N)N)NC(=O)[C@H](CCCN=C(N)N)NC(=O)[C@H](CCC(=O)O)NC(=O)[C@H](CC(=O)O)NC(=O)[C@H](CC(C)C)NC(=O)[C@H](Cc1ccc(O)cc1)NC(=O)[C@H](CCCCN)NC(=O)[C@H](CO)NC(=O)[C@H](Cc1ccc(O)cc1)NC(=O)[C@H](CC(=O)O)NC(=O)[C@H](CO)NC(=O)[C@@H](NC(=O)[C@H](Cc1ccccc1)NC(=O)[C@@H](NC(=O)CNC(=O)[C@H](CCC(N)=O)NC(=O)[C@H](CO)N[C@@H](Cc1cnc[nH]1)C(=O)O)[C@@H](C)O)[C@@H](C)O)C(C)C)C(=O)N[C@@H](CC(N)=O)C(=O)N[C@H](C(N)=O)[C@@H](C)O`: the EC50 was found to be 0.071 nM in test [1] and 0.077 nM on Glucagon receptor.

As for `CC[C@H](C)[C@H](NC(=O)[C@H](Cc1ccccc1)NC(=O)[C@H](CCC(=O)O)NC(=O)[C@@H]1CCCCNC(=O)CC[C@H](NC(=O)[C@H](CC(=O)O)NC(=O)[C@H](CC(C)C)NC(=O)[C@H](Cc2ccc(O)cc2)NC(=O)[C@H](CCCCN)NC(=O)[C@H](CO)NC(=O)[C@H](Cc2ccc(O)cc2)NC(=O)[C@H](CC(=O)O)NC(=O)[C@H](CO)NC(=O)[C@@H](NC(=O)[C@H](Cc2ccccc2)NC(=O)[C@@H](NC(=O)CNC(=O)[C@H](CCC(N)=O)NC(=O)C(C)CN[C@@H](Cc2cnc[nH]2)C(=O)O)[C@@H](C)O)[C@@H](C)O)C(=O)N[C@@H](CCC(N)=O)C(=O)N[C@@H](C)C(=O)N[C@@H](C)C(=O)N1)C(=O)N[C@@H](C)C(=O)N[C@@H](Cc1c[nH]c2ccccc12)C(=O)N[C@@H](CC(C)C)C(=O)N[C@@H](CCSC)C(=O)N[C@@H](CC(N)=O)C(=O)N[C@H](C(=O)O)[C@@H](C)O` (some centres undefined) (X1-QGTFTSDYSKYLDEQAAKEFIAWLMNT-OH; lactam 14-18), the values for the concentration giving a half-maximal response (EC50) (in test [1]; on Glucagon receptor) were 0.013 nM and 0.055 nM, respectively.

A word on the EC50: it is the concentration that produces a half-maximal response.
